# From patent publication US20020137929A1, “1 - (3-heterocyclylphenyl) isothiourea, -isourea, -guanidine and -amidine herbicidal agents” (Intellectual Property Department, BASF Aktiengesellschaft, priority 1998, published 2002)
# What was measured:
# ABUTH (Velvetleaf) = experiment: Postemergence herbicidal evaluation; type: in vivo, Abutilon theophrasti
# Summary of the method: (§1)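 Compound is applied as a foliar spray to seedlings about two weeks old, formulated in equal parts acetone and water with 0.5% TWEEN 20 and delivered at 40 psi to give about 0.0156–0.500 kg per hectare. Injury is rated visually 0–9 after four to five weeks.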
# GALAP (Galium) = experiment: Postemergence herbicidal evaluation; type: in vivo, Galium aparine
# Summary of the method: as §1
# ECHCG (Barnyardgrass) = experiment: Postemergence herbicidal evaluation; type: in vivo, Echinochloa crus-galli
# Summary of the method: as §1
# SETVI (Foxtail, Green) = experiment: Postemergence herbicidal evaluation; type: in vivo, Setaria viridis
# Summary of the method: as §1
# ORYSAT (Rice, Tebonnet) = experiment: Postemergence herbicidal evaluation; type: in vivo, Oryza sativa, (L.) Tebonnet
# Summary of the method: as §1
# [1] = tested on: IPOHE (Morningglory, Ivyleaf); experiment: Preemergence herbicidal evaluation; type: in vivo, Ipomoea hederacea; conditions: rated 4-5 weeks after treatment
# Summary of the method: (§2)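 Sown cups got a single aqueous acetone spray of test compound (roughly 0.0156–0.500 kg/ha) before seedlings emerged. Evaluation, 4–5 weeks on, used a 0–9 visual scale covering plant stand, vigor, size, malformation, chlorosis and general appearance compared with controls.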
# [2] = tested on: TRZAWR (Wheat, Winter, cv Riband); experiment: Preemergence herbicidal evaluation; type: in vivo, Triticum aestivum; conditions: rated 4-5 weeks after treatment
# Summary of the method: as §2
# ZEAMX (Corn, Field) = experiment: Preemergence herbicidal evaluation; type: in vivo, Zea mays; conditions: rated 4-5 weeks after treatment
# Summary of the method: as §2
# [3] = tested on: ECHORC (Watergrass (Calif.)); experiment: Preemergence weed control under flooded paddy conditions; type: in vivo, Echinochloa oryzoides; conditions: rated 3-4 weeks after treatment
# Summary of the method: (§3)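 Ratings on a 0-9 visual scale cover stand, vigor, malformation, size, chlorosis and overall appearance relative to a control, taken three to four weeks post-treatment. Application was into flood water over freshly sown silt loam at roughly 0.0313 to 0.500 kg/ha.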
# CYPIR (Rice Flatsedge) [4] = experiment: as above; type: in vivo, Cyperus iria; conditions: rated 3-4 weeks after treatment
# Summary of the method: as §3
# MOOVA (Monochoria) = experiment: as above; type: in vivo, Monochoria vaginalis; conditions: rated 3-4 weeks after treatment
# Summary of the method: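 Silt loam, seeds in top 0.5 cm; flood held 1.5-3 cm; test cpd as acetone/water 50/50 into flood water, ~0.0313-0.500 kg/ha a.i.; greenhouse 3-4 wk; visual 0-9 score vs control.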
# CYPIR (Rice Flatsedge) [5] = experiment: Postemergence weed control under flooded paddy conditions; type: in vivo, Cyperus iria; conditions: postemergence weeds, 3-4 weeks after treatment
# Summary of the method: (§4)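 Injury ratings (0–9 scale covering stand, vigor, malformation, size, chlorosis and overall appearance versus control) were made three to four weeks after treatment. Test material, about 0.0313 to 0.500 kg/ha a.i. in 50/50 v/v aqueous/acetone, was added to flood water 1.5 to 3 cm deep over 3 to 5 cm weeds and 1.5 to 2.5 leaf rice.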
# CYPSE (Flatsedge) = experiment: as above; type: in vivo, Cyperus serotinus; conditions: postemergence weeds, 3-4 weeks after treatment
# Summary of the method: as §4
# [6] = tested on: SAGPY (Arrowhead (Pygmaea)); experiment: as above; type: in vivo, Sagittaria pygmaea; conditions: postemergence weeds, 3-4 weeks after treatment
# Summary of the method: as §4
smiles,measurement,setting,value
"Cn1c(C(F)(F)F)cc(=O)n(-c2cc(N=C3SCC(=O)N3CC(=O)OC(C)(C)C)c(Cl)cc2F)c1=O [Compound 43, tert-Butyl 2-{{2-chloro-5-[3,6-dihydro-3-methyl-2,6-dioxo-4-(trifluoromethyl)-1(2H)-pyrimidinyl]-4-fluorophenyl}imino}-4-oxo-3-thiazolidineacetate]",Postemergence herbicidal rating ABUTH,ABUTH (Velvetleaf); Rate 0.0158 kg/ha,9.0
same,Postemergence herbicidal rating ABUTH,ABUTH (Velvetleaf); Rate 0.0315 kg/ha,9.0
same,Postemergence herbicidal rating ABUTH,ABUTH (Velvetleaf); Rate 0.0630 kg/ha,9.0
same,Postemergence herbicidal rating GALAP,GALAP (Galium); Rate 0.0158 kg/ha,0.0
same,Postemergence herbicidal rating GALAP,GALAP (Galium); Rate 0.0315 kg/ha,4.0
same,Postemergence herbicidal rating GALAP,GALAP (Galium); Rate 0.0630 kg/ha,4.0
same,Postemergence herbicidal rating ECHCG,ECHCG (Barnyardgrass); Rate 0.0158 kg/ha,0.0
same,Postemergence herbicidal rating ECHCG,ECHCG (Barnyardgrass); Rate 0.0315 kg/ha,0.0
same,Postemergence herbicidal rating ECHCG,ECHCG (Barnyardgrass); Rate 0.0630 kg/ha,0.0
same,Postemergence herbicidal rating SETVI,"SETVI (Foxtail, Green); Rate 0.0158 kg/ha",3.0
same,Postemergence herbicidal rating SETVI,"SETVI (Foxtail, Green); Rate 0.0315 kg/ha",3.0
same,Postemergence herbicidal rating SETVI,"SETVI (Foxtail, Green); Rate 0.0630 kg/ha",8.0
same,Postemergence herbicidal rating ORYSAT,"ORYSAT (Rice, Tebonnet); Rate 0.0158 kg/ha",1.0
same,Postemergence herbicidal rating ORYSAT,"ORYSAT (Rice, Tebonnet); Rate 0.0315 kg/ha",2.0
same,Postemergence herbicidal rating ORYSAT,"ORYSAT (Rice, Tebonnet); Rate 0.0630 kg/ha",3.0
same,Preemergence herbicidal rating IPOHE,[1]; rate 0.0156 kg/ha,0.0
same,Preemergence herbicidal rating IPOHE,[1]; rate 0.0313 kg/ha,0.0
same,Preemergence herbicidal rating IPOHE,[1]; rate 0.0625 kg/ha,0.0
same,Preemergence herbicidal rating IPOHE,[1]; rate 0.1250 kg/ha,2.0
same,Preemergence herbicidal rating IPOHE,[1]; rate 0.2500 kg/ha,9.0
same,Preemergence herbicidal rating TRZAWR,[2]; rate 0.0156 kg/ha,0.0
same,Preemergence herbicidal rating TRZAWR,[2]; rate 0.0313 kg/ha,0.0
same,Preemergence herbicidal rating TRZAWR,[2]; rate 0.0625 kg/ha,0.0
same,Preemergence herbicidal rating TRZAWR,[2]; rate 0.1250 kg/ha,1.0
same,Preemergence herbicidal rating TRZAWR,[2]; rate 0.2500 kg/ha,4.0
same,Preemergence herbicidal rating ZEAMX,"ZEAMX (Corn, Field); rate 0.0156 kg/ha",0.0
same,Preemergence herbicidal rating ZEAMX,"ZEAMX (Corn, Field); rate 0.0313 kg/ha",0.0
same,Preemergence herbicidal rating ZEAMX,"ZEAMX (Corn, Field); rate 0.0625 kg/ha",0.0
same,Preemergence herbicidal rating ZEAMX,"ZEAMX (Corn, Field); rate 0.1250 kg/ha",3.0
same,Preemergence herbicidal rating ZEAMX,"ZEAMX (Corn, Field); rate 0.2500 kg/ha",6.0
same,Herbicidal rating ECHORC,[3]; 0.0313 kg/ha,5.0
same,Herbicidal rating ECHORC,[3]; 0.0625 kg/ha,6.0
same,Herbicidal rating ECHORC,[3]; 0.1250 kg/ha,7.0
same,Herbicidal rating ECHORC,[3]; 0.2500 kg/ha,9.0
same,Herbicidal rating CYPIR,CYPIR (Rice Flatsedge) [4]; 0.0313 kg/ha,0.0
same,Herbicidal rating CYPIR,CYPIR (Rice Flatsedge) [4]; 0.0625 kg/ha,2.0
same,Herbicidal rating CYPIR,CYPIR (Rice Flatsedge) [4]; 0.1250 kg/ha,4.0
same,Herbicidal rating CYPIR,CYPIR (Rice Flatsedge) [4]; 0.2500 kg/ha,5.0
same,Herbicidal rating MOOVA,MOOVA (Monochoria); 0.0313 kg/ha,9.0
same,Herbicidal rating MOOVA,MOOVA (Monochoria); 0.0625 kg/ha,9.0
same,Herbicidal rating MOOVA,MOOVA (Monochoria); 0.1250 kg/ha,9.0
same,Herbicidal rating MOOVA,MOOVA (Monochoria); 0.2500 kg/ha,9.0
same,Herbicidal rating CYPIR,CYPIR (Rice Flatsedge) [5]; rate 0.0313 kg/ha,0.0
same,Herbicidal rating CYPIR,CYPIR (Rice Flatsedge) [5]; rate 0.1250 kg/ha,4.0
same,Herbicidal rating CYPIR,CYPIR (Rice Flatsedge) [5]; rate 0.2500 kg/ha,5.0
same,Herbicidal rating CYPSE,CYPSE (Flatsedge); rate 0.0313 kg/ha,5.0
same,Herbicidal rating CYPSE,CYPSE (Flatsedge); rate 0.1250 kg/ha,8.0
same,Herbicidal rating CYPSE,CYPSE (Flatsedge); rate 0.2500 kg/ha,9.0
same,Herbicidal rating SAGPY,[6]; rate 0.0313 kg/ha,7.0
same,Herbicidal rating SAGPY,[6]; rate 0.0825 kg/ha,7.0
same,Herbicidal rating SAGPY,[6]; rate 0.1250 kg/ha,7.0
same,Herbicidal rating SAGPY,[6]; rate 0.2500 kg/ha,9.0
